Laboratory results from PubChem BioAssay (NCI).
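Five compound concentrations were applied to cells in 96-well plates for 48 hours; endpoints were derived by simple linear interpolation of the resulting dose-response curve. TGI is the concentration that stops growth completely.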

Key:
Assay in all cases: NCI-60 cell line screen, 48 h
[1] = system: 786-0 renal
[2] = system: CCRF-CEM leukemia
[3] = system: COLO 205 colon
[4] = system: IGROV1 ovarian
[5] = system: M14 melanoma
[6] = system: MALME-3M melanoma
[7] = system: MCF7 breast
[8] = system: MDA-N
[9] = system: NCI-H226 lung
[10] = system: OVCAR-3 ovarian
[11] = system: OVCAR-5 ovarian
[12] = system: OVCAR-8 ovarian
[13] = system: SF-295 CNS
[14] = system: SK-MEL-28 melanoma
[15] = system: SK-OV-3 ovarian
[16] = system: SNB-75 CNS
[17] = system: SW-620 colon
[18] = system: NCI-H23 lung
[19] = system: UO-31 renal
[20] = system: UACC-62 melanoma

Compound	TGI [1] [µM]	TGI [2] [µM]	TGI [3] [µM]	TGI [4] [µM]	TGI [5] [µM]	TGI [6] [µM]	TGI [7] [µM]	TGI [8] [µM]	TGI [9] [µM]	TGI [10] [µM]	TGI [11] [µM]	TGI [12] [µM]	TGI [13] [µM]	TGI [14] [µM]	TGI [15] [µM]	TGI [16] [µM]	TGI [17] [µM]	TGI [18] [µM]	TGI [19] [µM]	TGI [20] [µM]
CSc1cc(Cl)c(C)cc1S(=O)(=O)NC(=O)NNc1cccc(C(F)(F)F)n1	> 100	> 100	> 100	> 100	> 100	> 100	> 100	> 100	> 100	> 100	> 100	> 100	> 100	> 100	> 100	> 100	> 100			
CC(C)=C[C@H]1CCC2(OCCO2)[C@]1(C)CO	> 100	> 100	> 100	> 100	> 100	> 100	> 100	> 100	> 100		> 100	> 100	> 100	> 100	> 100	> 100	> 100	> 100	> 100	
CO/C=C(/C(=O)OC)c1ccccc1COc1cccc(C(F)(F)F)c1	> 100	27.3	28.5	47.3	> 100	29.4	> 100	> 100	71.2	55	> 100	> 100	> 100	> 100	> 100	64.8		> 100	77	42
Cn1c([C@H](C#N)c2ncccc2[N+](=O)[O-])nc2ccccc21	> 100	> 100			> 100	> 100	> 100	> 100	> 100	> 100	> 100	> 100	> 100	> 100	> 100	67.1	> 100	> 100	> 100	> 100
CC(C)=C[C@H]1CCC2(OCCO2)[C@]1(C)COCc1ccccc1	80.1	34.5	32.3		99.4	> 100	> 100	> 100	46.8	52.7	82.1	> 100	> 100	> 100	> 100	> 100	> 100	> 100	> 100	
Nc1nc(-c2ccccc2)cc(-c2ccc(OCc3ccccc3)cc2O)n1	> 100	> 100	> 100	> 100	> 100	> 100	> 100	> 100	> 100	89.1	> 100	> 100	> 100	> 100		> 100	> 100	> 100	> 100	> 100
NNC(=S)N/N=C(/C(=O)Nc1ccc(Cl)c(Cl)c1)C(C1OC(=O)c2ccccc21)[N+](=O)[O-] (stereo not drawn)	> 100	> 100		> 100	> 100	> 100	> 100	> 100	> 100	> 100	> 100	> 100	> 100	> 100	> 100	> 100	> 100	> 100	> 100	> 100
N#C[C@@H](c1ccccn1)c1ncccc1[N+](=O)[O-]	> 100	> 100	> 100	> 100	> 100	> 100	> 100	> 100		> 100	> 100	> 100	> 100	> 100	> 100	> 100	> 100	> 100	> 100	> 100
CSc1nnc(SC)nn1	27.1	4.53	32.7	31	28.9	27	32.7	30.1	96.5	31.6	33.6	35.9	33.9		49	31.2	35.5	49.4	29.5	34
C(/C=C/Nc1ccc(Oc2ccccc2)cc1)=Nc1ccc(Oc2ccccc2)cc1	32.2	37	43.6	33		33.7	31.1	29.7	> 100	34.3	50.2	38.8	29.4	30.3		31.9	34.6	48.7	35	
